In this series the test system is telencephalon neurons from 9-day-old chicken embryos (cortical neurons). The format is cell-based. On the procedure: 1.1.2. Assay Conditions: • Assay: 2% low serum cell culture assay • Cell source: telencephalon neurons from 9-day-old chicken embryos (Lohman Brown hybrid) • Nutrition medium: EMEM with 1 g glucose/l, 2% FCS, 0.01% gentamycin sulfate and 2 mM L-glutamine • Group size: 4 independent experiments were performed (n =8 for DLHW (SEQ ID NO:2), NIVTPR (SEQ ID NO:3), HGFLPR (SEQ ID NO:4), NMVPFPR (SEQ ID NO:5) and the test matrix) • Evaluation of the effects: • MTT viability assay; absorbance (OD) measured with a plate reader • Duration of one single experiment: • 8 days
2.2.1.1. Test Item (DLHW) (SEQ ID NO:2): • Vehicle for dilution: test matrix (6.18 mg/ml NaCl and 0.35 mg/ml KCl) • Application mode: once at the 1st day • Application period: for the whole experiment, i.e. 8 days, from 1st day onwards • Concentrations: 5.6, 11.25, 22.5, 45, 90, 180, 360 and 720 μg/ml • Administration volume: 0.625, 1.25, 2.5, 5, 10, 20, 40, 80 μl/ml medium
2.2.1.2. Test Item (NIVTPR) (SEQ ID NO:3): • Vehicle for dilution: test matrix (6.18 mg/ml NaCl and 0.35 mg/ml KCl) • Application mode: once at the 1st day • Application period: for the whole experiment, i.e. 8 days, from 1st day onwards • Concentrations: 5.6, 11.25, 22.5, 45, 90, 180, 360 and 720 μg/ml • Administration volume: 0.625, 1.25, 2.5, 5, 10, 20, 40, 80 μl/ml medium
2.2.1.3. Test Item (HGFLPR) (SEQ ID NO:4): • Vehicle for dilution: test matrix (6.18 mg/ml NaCl and 0.35 mg/ml KCl) • Application mode: once at the 1st day • Application period: for the whole experiment, i.e. 8 days, from 1st day onwards • Concentrations: 5.6, 11.25, 22.5, 45, 90, 180, 360 and 720 μg/ml • Administration volume: 0.625, 1.25, 2.5, 5, 10, 20, 40, 80 μl/ml medium
2.2.1.4. Test Item (NMPFPR) (SEQ ID NO:5): • Vehicle for dilution: test matrix (6.18 mg/ml NaCl and 0.35 mg/ml KCl) • Application mode: once at the 1st day • Application period: for the whole experiment, i.e. 8 days, from 1st day onwards • Concentrations: 5.6, 11.25, 22.5, 45, 90, 180, 360 and 720 μg/ml • Administration volume: 0.625, 1.25, 2.5, 5, 10, 20, 40, 80 μl/ml medium
2.3. Assay Conditions • Cell culture assays: 2% low serum assay • Cell source: telencephalon neurons from 9-day-old chicken embryos (Lohman Brown hybrid) • Nutrition medium: EMEM with 1 g glucose/l, 2% FCS, 0.01% gentamycin sulfate and 2mM L-glutamine • Group size: 4 independent experiments were performed (n =8for DLHW (SEQ ID NO:2) ant and the test matrix; n =224 for controls) • Evaluation of the effects: MTT viability assay; absorbance (OD) measured with a plate reader • Duration of one single experiment: 8 days
The analytical procedure used in the present example is a 2% low serum assay using isolated avian cortical neurons. With this in vitro cell culture assay the neuroprotective and/or neurotrophic potential of compounds can be evaluated by determining the viability of living neurons after a distinct time period in culture. The method for measuring the amount of viable neurons is the MTT-assay.
To the isolated nerve cells the peptides or test matrix were added once, i.e. at the first day. The 8 concentrations comprising dose range was between 5.6, 11.25, 22.5, 45, 90, 180, 360 and 720 μg/ml medium; the volumes applied were 0.625, 1.25, 2.5, 5, 10, 20, 40, 80 μl/ml medium.
Neuronal viability of cultures was determined with the MTT-assay using a plate-reader (570 nm). The MTT-assay is a sensitive assay measuring the mitochondrial dehydrogenase activity in viable cells only. It is performed according to the method described by Mosmann, J. Immunol. Meth, 1983, 55-63. This assay is based on the reduction of yellow MTT (3-(4,5-dimethylthiazol-2-yl)-2,5,diphenyl tetrazolium bromide), to dark blue formazan crystals by mitochondrial dehydrogenases (succinate dehydrogenase). Since this reaction is catalysed in living cells only the assay can be used for the quantification of cell viability. […]

[1] abbreviates: 5.6 μg/ml, added at 1DIV, 8 days.
[2] abbreviates: 11.25 μg/ml, added at 1DIV, 8 days.
Where [3] appears, read: 22.5 μg/ml, added at 1DIV, 8 days.
The mark [4] stands for this setting: 45 μg/ml, added at 1DIV, 8 days.
The mark [5] stands for this setting: 90 μg/ml, added at 1DIV, 8 days.
Where [6] appears, read: 180 μg/ml, added at 1DIV, 8 days.
Where [7] appears, read: 360 μg/ml, added at 1DIV, 8 days.
Setting [8] is: 720 μg/ml, added at 1DIV, 8 days.
[9] abbreviates: Lohman Brown hybrid, chicken, 8 days, 5.6 μg/ml.
Setting [10] is: Lohman Brown hybrid, chicken, 8 days, 11.25 μg/ml.
Setting [11] is: Lohman Brown hybrid, chicken, 8 days, 22.5 μg/ml.
Where [12] appears, read: Lohman Brown hybrid, chicken, 8 days, 45 μg/ml.
The mark [13] stands for this setting: Lohman Brown hybrid, chicken, 8 days, 90 μg/ml.
Setting [14] is: Lohman Brown hybrid, chicken, 8 days, 180 μg/ml.
Setting [15] is: Lohman Brown hybrid, chicken, 8 days, 360 μg/ml.
The mark [16] stands for this setting: Lohman Brown hybrid, chicken, 8 days, 720 μg/ml.

Where two headings read alike, the source gives them in different places. Residues, ends and D or L forms follow the SMILES beside them. No end group written: not given here.

Regarding `CC(C)C[C@H](NC(=O)[C@@H](N)CC(=O)O)C(=O)N[C@@H](Cc1c[nH]cn1)C(=O)N[C@@H](Cc1c[nH]c2ccccc12)C(=O)O` [DLHW] (H-DLHW-OH; N-terminus and C-terminus assumed), the “viability of cortical neurons, MTT, mean optical density (OD)” value (shortened to “viability of cortical neurons, MTT”) amounted to 0.062 OD under setting [1]; 0.062 OD under setting [2]; 0.085 OD under setting [3]; 0.136 OD under setting [4]; 0.217 OD under setting [5]; 0.272 OD under setting [6]. Moreover, the “viability of cortical neurons, MTT” value is recorded as 0.254 OD under setting [7] and 0.257 OD under setting [8]. For the same compound, the “viability of cortical neurons, mean in % (control is 100%)” value (from here on “viability of cortical neurons, mean in %”) stood at 97.85% under setting [9]; 97.68% under setting [10]; 134.51% under setting [11]; 213.12% under setting [12]; 341.82% under setting [13]; 429.54% under setting [14]. The “viability of cortical neurons, mean in %” value runs as follows: under setting [15], 401.23%; under setting [16], 406.75%. For the same compound, the “maximum effect (viability, control 100%)” value under setting [15] was 430%. Also, the effect beyond control (added at 1DIV, MTT method) amounted to 430%. In addition, for the setting “added at 1DIV, MTT method”, the effective dose range lay in the range of 45 to 702 µg/mL. The “maximum effect in %” value (added at 1DIV, MTT method) came out at 430%. For the same compound, the most effectice concentration (added at 1DIV, MTT method) came out at 180 µg/mL. The “effect above the control level” value (in higher concentrations (than that of the maximum effect)) is listed as roughly 300%.
On to HGFLPR [HGFLPR], for which the “viability of cortical neurons, MTT” value under setting [1] was 0.068 OD; the “viability of cortical neurons, MTT” value under setting [2] is listed as 0.069 OD; the “viability of cortical neurons, MTT” value under setting [3] stood at 0.069 OD; the “viability of cortical neurons, MTT” value under setting [4] turned out to be 0.067 OD; the “viability of cortical neurons, MTT” value under setting [5] is on record as 0.070 OD; the “viability of cortical neurons, MTT” value under setting [6] turned out to be 0.067 OD. Moreover, the “viability of cortical neurons, MTT” value is reported as 0.064 OD under setting [7] and 0.058 OD under setting [8]. Also, the “viability of cortical neurons, mean in %” value by setting is: under setting [9], 100.07%; under setting [10], 101.16%; under setting [11], 101.16%; under setting [12], 98.95%; under setting [13], 102.25%; under setting [14], 99.14%. Also, the “viability of cortical neurons, mean in %” value by setting is: under setting [15], 94.53%; under setting [16], 85.71%.
On to NIVTPR [NIVTPR], for which the “viability of cortical neurons, MTT” value under setting [1] came to 0.068 OD; the “viability of cortical neurons, MTT” value under setting [2] is recorded as 0.069 OD; the “viability of cortical neurons, MTT” value under setting [3] was 0.068 OD; the “viability of cortical neurons, MTT” value under setting [4] is 0.068 OD; the “viability of cortical neurons, MTT” value under setting [5] was determined as 0.066 OD; the “viability of cortical neurons, MTT” value under setting [6] is 0.064 OD. Also, the “viability of cortical neurons, MTT” value under setting [7] is reported as 0.060 OD and the “viability of cortical neurons, MTT” value under setting [8] came out at 0.058 OD. The “viability of cortical neurons, mean in %” value reads like this: under setting [9], 98.92%; under setting [10], 100.32%; under setting [11], 98.70%; under setting [12], 98.75%; under setting [13], 95.12%; under setting [14], 92.28%. In addition, the “viability of cortical neurons, mean in %” value came to 86.60% under setting [15] and 83.13% under setting [16].
Take NMVPFPR [NMVPFPR]: the “viability of cortical neurons, MTT” value came to 0.061 OD under setting [1]; 0.060 OD under setting [2]; 0.057 OD under setting [3]; 0.057 OD under setting [4]; 0.056 OD under setting [5]; 0.055 OD under setting [6]. The “viability of cortical neurons, MTT” value is listed as 0.055 OD under setting [7] and 0.057 OD under setting [8]. Also, the “viability of cortical neurons, mean in %” value is, setting by setting: under setting [9], 98.06%; under setting [10], 95.77%; under setting [11], 90.76%; under setting [12], 90.55%; under setting [13], 89.54%; under setting [14], 87.76%. The “viability of cortical neurons, mean in %” value under setting [15] was found to be 87.79% and the “viability of cortical neurons, mean in %” value under setting [16] is on record as 91.24%.

The values above are taken from patent US8034778B2, “Neuroprotective compounds and uses thereof” (Ever Neuro Pharma GmbH, priority 2006, dated 2011).
